Assay results from ChEMBL document CHEMBL4118098, “Discovery of DS28120313 as a potent orally active hepcidin production inhibitor: Design and optimization of novel 4,6-disubstituted indazole derivatives” (Bioorg Med Chem Lett, 2017).

Tests used:
[1] = target: Aurora kinase A (Homo sapiens) (UniProt O14965); test: Inhibition of AurA (unknown origin) at 0.164 uM relative to control
[2] = target: Ephrin type-A receptor 2 (Homo sapiens) (UniProt P29317); test: Inhibition of EPHA2 (unknown origin) at 0.164 uM relative to control
Chain of Ephrin type-A receptor 2 (Homo sapiens) (P29317 whole entry): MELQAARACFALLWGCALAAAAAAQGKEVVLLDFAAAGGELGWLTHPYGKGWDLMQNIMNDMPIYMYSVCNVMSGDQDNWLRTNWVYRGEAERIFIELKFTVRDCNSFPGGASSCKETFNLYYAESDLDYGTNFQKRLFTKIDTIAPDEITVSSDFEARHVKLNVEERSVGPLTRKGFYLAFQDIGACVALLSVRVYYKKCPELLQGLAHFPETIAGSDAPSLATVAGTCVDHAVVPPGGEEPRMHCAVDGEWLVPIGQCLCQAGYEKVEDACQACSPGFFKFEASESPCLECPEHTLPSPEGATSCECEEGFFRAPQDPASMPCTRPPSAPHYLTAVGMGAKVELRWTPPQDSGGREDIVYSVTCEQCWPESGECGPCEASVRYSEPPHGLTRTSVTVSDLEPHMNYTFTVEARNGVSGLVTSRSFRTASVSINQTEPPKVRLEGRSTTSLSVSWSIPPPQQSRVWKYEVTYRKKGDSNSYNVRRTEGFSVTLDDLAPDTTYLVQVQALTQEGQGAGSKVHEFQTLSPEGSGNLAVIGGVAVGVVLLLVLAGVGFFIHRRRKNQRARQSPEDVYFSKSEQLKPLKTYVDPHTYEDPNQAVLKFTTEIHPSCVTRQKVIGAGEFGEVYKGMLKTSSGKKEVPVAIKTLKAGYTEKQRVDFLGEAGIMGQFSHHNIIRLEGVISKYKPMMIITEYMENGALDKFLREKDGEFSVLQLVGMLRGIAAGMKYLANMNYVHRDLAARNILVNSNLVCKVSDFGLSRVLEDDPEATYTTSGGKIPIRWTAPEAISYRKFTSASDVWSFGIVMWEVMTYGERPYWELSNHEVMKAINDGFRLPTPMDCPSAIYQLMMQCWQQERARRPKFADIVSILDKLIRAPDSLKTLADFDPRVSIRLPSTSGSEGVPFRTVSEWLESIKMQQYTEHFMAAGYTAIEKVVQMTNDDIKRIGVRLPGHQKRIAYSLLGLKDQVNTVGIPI

[3] = target: Serine/threonine-protein kinase Sgk3 (Homo sapiens) (UniProt Q96BR1); test: Inhibition of SGK3 (unknown origin) at 0.164 uM relative to control
[4] = target: Serine/threonine-protein kinase Sgk2 (Homo sapiens) (UniProt Q9HBY8); test: Inhibition of SGK2 (unknown origin) at 0.164 uM relative to control
[5] = target: Mitogen-activated protein kinase 3 (Homo sapiens) (UniProt P27361); test: Inhibition of Erk1 (unknown origin) at 0.164 uM relative to control
Chain of Mitogen-activated protein kinase 3 (Homo sapiens) (P27361 whole entry): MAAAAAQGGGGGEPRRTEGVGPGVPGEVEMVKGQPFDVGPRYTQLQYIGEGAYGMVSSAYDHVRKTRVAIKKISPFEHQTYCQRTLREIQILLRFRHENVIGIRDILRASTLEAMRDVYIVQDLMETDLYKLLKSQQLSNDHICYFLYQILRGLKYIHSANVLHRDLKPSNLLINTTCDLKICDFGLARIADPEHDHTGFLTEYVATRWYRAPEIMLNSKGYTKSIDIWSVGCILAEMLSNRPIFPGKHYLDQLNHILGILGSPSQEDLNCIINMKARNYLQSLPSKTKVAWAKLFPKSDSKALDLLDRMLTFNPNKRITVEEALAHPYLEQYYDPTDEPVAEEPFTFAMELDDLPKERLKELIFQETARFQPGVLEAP

[6] = target: Interleukin-1 receptor-associated kinase 4 (Homo sapiens) (UniProt Q9NWZ3); test: Inhibition of IRAK4 (unknown origin) at 0.164 uM relative to control
[7] = target: Proto-oncogene tyrosine-protein kinase receptor Ret (Homo sapiens) (UniProt P07949); test: Inhibition of RET (unknown origin) at 0.164 uM relative to control
Chain of Proto-oncogene tyrosine-protein kinase receptor Ret (Homo sapiens) (P07949 whole entry): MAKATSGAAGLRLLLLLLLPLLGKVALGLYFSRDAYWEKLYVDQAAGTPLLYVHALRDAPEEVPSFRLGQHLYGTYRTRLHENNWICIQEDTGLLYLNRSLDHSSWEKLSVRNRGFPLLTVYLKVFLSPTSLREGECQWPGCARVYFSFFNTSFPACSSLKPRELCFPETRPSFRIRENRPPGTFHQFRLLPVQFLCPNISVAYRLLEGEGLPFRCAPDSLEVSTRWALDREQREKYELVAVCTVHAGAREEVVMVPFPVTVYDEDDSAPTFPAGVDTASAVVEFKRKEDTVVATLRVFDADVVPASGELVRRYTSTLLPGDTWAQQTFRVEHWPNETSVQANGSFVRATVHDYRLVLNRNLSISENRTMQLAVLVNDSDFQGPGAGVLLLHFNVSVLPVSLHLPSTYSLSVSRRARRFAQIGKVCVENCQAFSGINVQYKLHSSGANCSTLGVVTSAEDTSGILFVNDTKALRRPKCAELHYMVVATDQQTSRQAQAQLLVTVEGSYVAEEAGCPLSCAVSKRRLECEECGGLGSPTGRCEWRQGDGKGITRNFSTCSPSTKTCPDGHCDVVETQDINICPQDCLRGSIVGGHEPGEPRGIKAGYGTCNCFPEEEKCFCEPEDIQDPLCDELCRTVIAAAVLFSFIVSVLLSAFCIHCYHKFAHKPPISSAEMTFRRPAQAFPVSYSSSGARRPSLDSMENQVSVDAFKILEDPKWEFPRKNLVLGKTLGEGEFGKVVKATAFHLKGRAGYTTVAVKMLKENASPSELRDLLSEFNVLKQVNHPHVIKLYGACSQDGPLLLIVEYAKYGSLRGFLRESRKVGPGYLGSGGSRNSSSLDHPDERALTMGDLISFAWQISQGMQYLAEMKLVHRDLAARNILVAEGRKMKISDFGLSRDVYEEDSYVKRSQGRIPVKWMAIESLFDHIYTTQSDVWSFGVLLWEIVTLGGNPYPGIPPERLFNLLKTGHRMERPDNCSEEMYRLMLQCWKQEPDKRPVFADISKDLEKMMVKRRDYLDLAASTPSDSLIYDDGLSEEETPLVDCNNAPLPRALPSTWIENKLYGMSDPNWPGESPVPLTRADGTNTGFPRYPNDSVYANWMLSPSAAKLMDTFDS

[8] = test system: Tyrosine-protein kinase ABL1 (Homo sapiens), P00519 [E255K]; test: Inhibition of ABL1 E255K mutant (unknown origin) at 0.164 uM relative to control
[9] = target: Dual specificity tyrosine-phosphorylation-regulated kinase 3 (Homo sapiens) (UniProt O43781); test: Inhibition of DYRK3 (unknown origin) at 0.164 uM relative to control
Chain of Dual specificity tyrosine-phosphorylation-regulated kinase 3 (Homo sapiens) (O43781 whole entry): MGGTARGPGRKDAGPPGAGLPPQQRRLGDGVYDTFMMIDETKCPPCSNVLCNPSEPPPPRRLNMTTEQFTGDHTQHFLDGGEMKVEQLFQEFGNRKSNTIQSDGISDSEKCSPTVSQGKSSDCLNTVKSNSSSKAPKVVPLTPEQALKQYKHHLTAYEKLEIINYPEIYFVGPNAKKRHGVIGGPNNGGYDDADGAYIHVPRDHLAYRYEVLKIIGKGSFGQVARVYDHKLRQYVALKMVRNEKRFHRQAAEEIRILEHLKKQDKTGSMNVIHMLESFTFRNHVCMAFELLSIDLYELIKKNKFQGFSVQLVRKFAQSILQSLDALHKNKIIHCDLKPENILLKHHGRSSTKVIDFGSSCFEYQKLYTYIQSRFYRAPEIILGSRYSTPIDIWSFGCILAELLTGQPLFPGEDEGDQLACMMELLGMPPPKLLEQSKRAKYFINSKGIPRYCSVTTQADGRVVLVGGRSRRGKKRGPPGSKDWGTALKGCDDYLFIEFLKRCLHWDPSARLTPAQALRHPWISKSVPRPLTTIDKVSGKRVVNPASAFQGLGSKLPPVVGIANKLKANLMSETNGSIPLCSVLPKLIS

[10] = target: Platelet-derived growth factor receptor alpha (Homo sapiens) (UniProt P16234); test: Inhibition of PDGFR alpha (unknown origin) at 0.164 uM relative to control
[11] = target: Serine/threonine-protein kinase Chk1 (Homo sapiens) (UniProt O14757); test: Inhibition of CHK1 (unknown origin) at 0.164 uM relative to control
Chain of Serine/threonine-protein kinase Chk1 (Homo sapiens) (O14757 whole entry): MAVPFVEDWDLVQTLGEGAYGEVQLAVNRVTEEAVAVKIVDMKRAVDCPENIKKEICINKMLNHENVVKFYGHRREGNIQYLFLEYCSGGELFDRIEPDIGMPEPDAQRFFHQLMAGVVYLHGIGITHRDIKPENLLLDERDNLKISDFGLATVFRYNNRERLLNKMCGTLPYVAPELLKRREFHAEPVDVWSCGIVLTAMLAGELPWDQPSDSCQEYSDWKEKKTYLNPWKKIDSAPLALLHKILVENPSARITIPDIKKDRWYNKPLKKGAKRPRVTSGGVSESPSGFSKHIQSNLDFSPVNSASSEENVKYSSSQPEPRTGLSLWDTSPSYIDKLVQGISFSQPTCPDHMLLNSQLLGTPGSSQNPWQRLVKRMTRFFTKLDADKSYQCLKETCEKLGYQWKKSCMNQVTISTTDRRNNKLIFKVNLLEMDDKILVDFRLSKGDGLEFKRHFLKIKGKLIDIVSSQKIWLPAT

[12] = target: Mitogen-activated protein kinase 11 (Homo sapiens) (UniProt Q15759); test: Inhibition of p38-beta2 (unknown origin) at 0.164 uM relative to control
[13] = target: Tyrosine-protein kinase Tec (Homo sapiens) (UniProt P42680); test: Inhibition of TEC (unknown origin) at 0.164 uM relative to control
[14] = target: T1, MAP kinase-activated protein kinase 5 (Homo sapiens) (UniProt Q8IW41); test: Inhibition of PRAK (unknown origin) at 0.45 uM relative to control
T1 sequence (whole entry): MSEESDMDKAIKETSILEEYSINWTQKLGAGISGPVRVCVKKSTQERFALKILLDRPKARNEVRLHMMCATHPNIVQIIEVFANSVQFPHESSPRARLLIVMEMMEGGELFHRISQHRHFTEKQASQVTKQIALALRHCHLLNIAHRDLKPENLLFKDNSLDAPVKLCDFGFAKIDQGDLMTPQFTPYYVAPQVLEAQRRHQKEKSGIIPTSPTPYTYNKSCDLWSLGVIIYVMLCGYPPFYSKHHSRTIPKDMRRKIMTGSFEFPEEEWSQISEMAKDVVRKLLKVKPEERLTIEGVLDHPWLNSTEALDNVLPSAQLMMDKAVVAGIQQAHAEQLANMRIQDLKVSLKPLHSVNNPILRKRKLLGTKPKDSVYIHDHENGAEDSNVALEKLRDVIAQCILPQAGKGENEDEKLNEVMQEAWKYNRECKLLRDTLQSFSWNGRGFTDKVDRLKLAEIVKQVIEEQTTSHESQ

[15] = target: T2, Serine/threonine-protein kinase D1 (Homo sapiens) (UniProt Q15139); test: Inhibition of PKD1 (unknown origin) at 0.45 uM relative to control
T2 sequence (whole entry): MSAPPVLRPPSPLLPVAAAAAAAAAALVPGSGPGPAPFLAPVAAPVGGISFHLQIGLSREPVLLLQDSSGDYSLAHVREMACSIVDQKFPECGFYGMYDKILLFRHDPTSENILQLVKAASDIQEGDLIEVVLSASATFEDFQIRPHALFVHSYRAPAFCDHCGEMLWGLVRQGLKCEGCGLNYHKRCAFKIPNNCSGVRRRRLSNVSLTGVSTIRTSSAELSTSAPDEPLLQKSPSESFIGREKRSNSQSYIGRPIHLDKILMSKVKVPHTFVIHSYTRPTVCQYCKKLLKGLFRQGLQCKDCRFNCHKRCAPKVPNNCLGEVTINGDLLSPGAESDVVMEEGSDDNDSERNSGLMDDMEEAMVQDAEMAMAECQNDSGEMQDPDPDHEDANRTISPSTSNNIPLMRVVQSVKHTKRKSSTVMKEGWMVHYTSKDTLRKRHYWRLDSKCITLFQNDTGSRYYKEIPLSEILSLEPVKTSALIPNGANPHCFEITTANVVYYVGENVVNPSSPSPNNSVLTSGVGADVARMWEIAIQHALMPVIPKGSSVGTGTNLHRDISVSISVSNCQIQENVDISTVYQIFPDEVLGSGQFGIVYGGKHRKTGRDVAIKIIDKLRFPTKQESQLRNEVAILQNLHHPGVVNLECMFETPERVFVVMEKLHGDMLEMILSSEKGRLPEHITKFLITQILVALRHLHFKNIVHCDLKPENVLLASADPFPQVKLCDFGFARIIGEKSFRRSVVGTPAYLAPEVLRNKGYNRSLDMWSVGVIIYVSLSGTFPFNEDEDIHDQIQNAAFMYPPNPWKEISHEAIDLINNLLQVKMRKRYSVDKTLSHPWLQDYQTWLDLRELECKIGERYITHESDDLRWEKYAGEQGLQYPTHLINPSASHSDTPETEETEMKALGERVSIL

[16] = target: Serine/threonine-protein kinase 24 (Homo sapiens) (UniProt Q9Y6E0); test: Inhibition of MST3 (unknown origin) at 0.19 uM relative to control
Chain of Serine/threonine-protein kinase 24 (Homo sapiens) (Q9Y6E0 whole entry, looked up): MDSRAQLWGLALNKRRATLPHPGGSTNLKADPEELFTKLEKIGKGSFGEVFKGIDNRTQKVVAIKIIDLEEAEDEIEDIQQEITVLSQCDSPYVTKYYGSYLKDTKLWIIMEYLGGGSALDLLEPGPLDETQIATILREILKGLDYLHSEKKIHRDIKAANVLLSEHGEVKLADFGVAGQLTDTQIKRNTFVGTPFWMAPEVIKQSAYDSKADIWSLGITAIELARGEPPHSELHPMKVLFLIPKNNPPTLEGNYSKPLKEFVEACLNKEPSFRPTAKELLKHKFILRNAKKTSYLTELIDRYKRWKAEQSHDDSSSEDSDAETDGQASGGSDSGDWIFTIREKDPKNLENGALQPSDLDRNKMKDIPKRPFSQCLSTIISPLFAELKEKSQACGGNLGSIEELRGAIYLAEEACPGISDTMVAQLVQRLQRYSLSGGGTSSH

[17] = test system: Tyrosine-protein kinase ABL1 (Homo sapiens), P00519 [H396P]; test: Inhibition of Abl H396P mutant (unknown origin) at 0.19 uM relative to control
[18] = target: RAC-alpha serine/threonine-protein kinase (Homo sapiens) (UniProt P31749); test: Inhibition of AKT1 (unknown origin) at 0.19 uM relative to control
Chain of RAC-alpha serine/threonine-protein kinase (Homo sapiens) (P31749 whole entry): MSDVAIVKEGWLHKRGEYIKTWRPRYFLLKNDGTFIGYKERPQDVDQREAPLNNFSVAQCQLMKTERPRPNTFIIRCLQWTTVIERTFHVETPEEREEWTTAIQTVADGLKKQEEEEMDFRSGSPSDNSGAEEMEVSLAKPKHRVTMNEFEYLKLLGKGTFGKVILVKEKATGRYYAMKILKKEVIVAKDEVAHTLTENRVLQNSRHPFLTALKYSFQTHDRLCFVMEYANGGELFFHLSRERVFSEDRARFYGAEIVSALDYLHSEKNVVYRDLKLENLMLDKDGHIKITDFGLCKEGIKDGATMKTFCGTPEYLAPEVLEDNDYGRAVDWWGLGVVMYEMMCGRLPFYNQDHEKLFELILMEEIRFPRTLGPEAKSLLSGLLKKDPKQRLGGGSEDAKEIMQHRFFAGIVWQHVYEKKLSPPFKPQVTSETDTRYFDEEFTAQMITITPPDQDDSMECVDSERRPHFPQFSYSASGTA

[19] = target: Ribosomal protein S6 kinase alpha-5 (Homo sapiens) (UniProt O75582); test: Inhibition of MSK1 (unknown origin) at 0.19 uM relative to control
[20] = target: Tyrosine-protein kinase Fyn (Homo sapiens) (UniProt P06241); test: Inhibition of FYN (unknown origin) at 0.19 uM relative to control
Chain of Tyrosine-protein kinase Fyn (Homo sapiens) (P06241 2-537 limits assumed): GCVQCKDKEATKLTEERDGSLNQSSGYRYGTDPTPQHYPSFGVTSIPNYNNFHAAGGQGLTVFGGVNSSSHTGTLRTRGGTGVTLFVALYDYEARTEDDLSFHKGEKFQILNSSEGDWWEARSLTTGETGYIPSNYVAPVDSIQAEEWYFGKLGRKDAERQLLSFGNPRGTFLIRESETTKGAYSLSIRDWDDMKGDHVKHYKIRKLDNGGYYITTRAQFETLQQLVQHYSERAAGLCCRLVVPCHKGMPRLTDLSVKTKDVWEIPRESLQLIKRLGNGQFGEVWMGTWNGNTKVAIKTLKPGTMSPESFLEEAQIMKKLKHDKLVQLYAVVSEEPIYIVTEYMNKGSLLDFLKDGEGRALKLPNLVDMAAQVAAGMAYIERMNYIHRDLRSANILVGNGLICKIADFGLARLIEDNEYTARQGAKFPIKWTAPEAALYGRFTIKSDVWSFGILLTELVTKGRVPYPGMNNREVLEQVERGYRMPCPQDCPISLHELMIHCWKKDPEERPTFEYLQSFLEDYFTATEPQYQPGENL

[21] = target: Hepatocyte growth factor receptor (Homo sapiens) (UniProt P08581); test: Inhibition of MET (unknown origin) at 0.19 uM relative to control
[22] = target: Rho-associated protein kinase 1 (Homo sapiens) (UniProt Q13464); test: Inhibition of ROCK1 (unknown origin) at 0.19 uM relative to control

`COC(=O)Nc1cc(-c2c(C3CC3)n[nH]c2C)cc2[nH]ncc12` was tested, and the inhibition [1] was 6.7%, the inhibition [2] was -2.3% and the inhibition [3] was 3%. The inhibition [4] was -0.7%, the inhibition [5] was 7% and the inhibition [6] was -7.7%. The inhibition [7] was 7.3%, the inhibition [8] was -2.3% and the inhibition [9] was 5.3%. It also gave an inhibition [10] of 11.7%, an inhibition [11] of 5.3% and an inhibition [12] of 1.7%. It also gave an inhibition [13] of -4.3%.
`Cc1n[nH]c(C)c1-c1ccc2c(NC(=O)c3ccc(N4CCN(C)CC4)cc3)n[nH]c2c1` was tested, and the inhibition [14] was -1.7% and the inhibition [15] was 1.3%.
In the case of `Cc1[nH]nc(C2CC2)c1-c1ccc2c(-c3ccc(N4CCN(C)CC4)nc3)n[nH]c2c1`, the inhibition [16] is reported as 33%, the inhibition [17] is reported as 86.3% and the inhibition [18] is reported as 1.7%. It also gave an inhibition [19] of 1.3%, an inhibition [20] of 12.3% and an inhibition [21] of 7.3%. It also gave an inhibition [22] of -7.3%.
